The results in this text go back to publication PMC6405842, “Identification of a novel scaffold for a small molecule GPR139 receptor agonist” (Scientific Reports, 2019).

As a reminder, the Emax is the greatest response seen or fitted, relative to the assay's reference.

Holding throughout (format): cell-based
One assay concerns the target T1, GPR139 W241H^6×48 (Homo sapiens, UniProt Q6DWJ6, W241H).
T1 construct: myc (N); expressed in transfected cells
T1 sequence (Q6DWJ6 1-353 W241H): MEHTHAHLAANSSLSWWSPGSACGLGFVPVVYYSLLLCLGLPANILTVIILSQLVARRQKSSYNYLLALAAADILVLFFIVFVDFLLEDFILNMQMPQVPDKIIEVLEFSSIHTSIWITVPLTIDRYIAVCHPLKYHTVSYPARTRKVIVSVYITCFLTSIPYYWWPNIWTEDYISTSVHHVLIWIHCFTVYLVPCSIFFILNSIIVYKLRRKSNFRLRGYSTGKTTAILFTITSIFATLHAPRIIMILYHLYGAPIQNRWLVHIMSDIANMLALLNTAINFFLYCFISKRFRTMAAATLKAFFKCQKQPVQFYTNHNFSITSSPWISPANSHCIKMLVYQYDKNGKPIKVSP
The assay can be described thus: Ca2+ mobilization on GPR139 mutant W241H. The procedure: (§1) Figure 4 Ca^2+ mobilization concentration-response curves of AC4 on GPR139 wild-type (WT) and mutants. Data is shown from a representative experiment (mean ± S.D.) out of three independent experiments performed in duplicate. Data is normalized to the Ca^2+ response of buffer (0%) and 100 μM AC4 (100%) on myc-GPR139(WT). Residue numbering in superscript is according to GPCRdb numbering system.
(§2) The mutational studies were performed as previously described.
(A change in cytosolic calcium serves as a functional read-out for many receptors and channels.)

Another assay concerns the target T2, GPR139 F109L^3×33 (Homo sapiens, UniProt Q6DWJ6, F109L).
T2 construct: myc (N); expressed in transfected cells
T2 sequence (Q6DWJ6 1-353 F109L): T1 sequence (Q6DWJ6 1-353 W241H) with F109L, H241W
Briefly: Ca2+ mobilization on GPR139 mutant F109L. As to conditions: highest tested concentration (100 μM), n = 3. The procedure:
as §1, §2

The next assay concerns the target T3, GPR139 N271A^7×38 (Homo sapiens, UniProt Q6DWJ6, N271A).
T3 construct: myc (N); expressed in transfected cells
T3 sequence (Q6DWJ6 1-353 N271A): T1 sequence (Q6DWJ6 1-353 W241H) with H241W, N271A
Briefly: Ca2+ mobilization on GPR139 mutant N271A. On the procedure:
as §1, §2

Numbering of substitutions follows the chain as printed.

In turn, `O=C(O)C1CC=CCC1c1nnc(CSc2ccc(Cl)cc2)o1` (stereo not shown) [AC4] registered an Emax at GPR139 W241H^6×48 (mutant W241H, n = 3) of 37 ± 3%. Moreover, the “fold change of EC50 on W241H versus WT” value on GPR139 W241H^6×48 (printed as lower EC50 than on WT) turned out to be 12 fold. Moreover, the “Ca2+ response” value is recorded as 17 ± 2 % of WT on GPR139 F109L^3×33 and “no measurable Ca^2+ response” on GPR139 N271A^7×38.
